Source: patent US20260274853A1, “BIFUNCTIONAL COMPOUNDS CONTAINING PYRIMIDINE DERIVATIVES FOR DEGRADING CYCLIN-DEPENDENT KINASE 2 VIA UBIQUITIN PROTEASOME PATHWAY” (NIKANG THERAPEUTICS, INC., priority 2022, published 2026)

Columns and labels:
CDK2 [1] = molecular target: T1, CDK2 (Homo sapiens, UniProt P24941); assay: Inhibition of CDK2: phospho-Rb (S807/811) HTRF measurement in OVCAR3 cells; type: cell-based; conditions: 24 h compound treatment, read-out: pRb (nM), IC50 in pRB(S807/811) assay
T1 construct: High-Throughput Measurement of Cellular Endogenous CDK2; endogenous in cells; host or cells: OVCAR3
Method: Phosphorylation of RB protein at S807/811 were measured using HTRF phospho-RB cellular kits (Cat #64RBS807PEG) from Cisbio.
On Day 1, OVCAR3 (dependent on CDK2) cells were seeded into 96-well tissue-culture treated plates at 20,000 cells/well in 200 μL and incubated overnight at 37° C. in CO2 atmosphere. On Day 2, the cells were treated with test compounds at concentrations from 0.3 to 10,000 nM using HP D300 digital dispenser. Twenty-four hours after compound treatment, cell culture media was removed by flicking the plate and tapping the plate against clean paper towel. Immediately 30 μL 1× lysis buffer was supplemented from the kit and the plate was incubated at room temperature on shaker for 30 min. After homogenization by pipetting up and down, 8 μL cell lysate from 96-well cell culture plate was transferred to 384-well small volume white detection plate. 2 μL premixed detection solution was added and the plate was covered with sealer. To prepare the detection solution, d2 conjugated-phospho-RB antibody and Eu-cryptate conjugated phosphor-RB antibody were diluted into detection buffer following manufacturer's instruction. Detection plates were incubated for 4 h at room temperature and read on ClarioStar (BMG Labtech) in TR-FRET mode (665 nM and 620 nM). The TR-FRET ratio (665 nM/620 nM) was plotted against the compound concentration and normalized to DMSO controls. Half maximal inhibition concentration (IC50) values are calculated with a four-parameter logistic fit using GraphPad Prism (version 8; La Jolla, CA).
In the table below, A indicates a IC50 of less than 0.1 μM; B indicates a IC50 of greater than or equal to 0.1 μM but less than 0.5 μM; C indicates a IC50 of greater than or equal to 0.5 μM but less than 1 μM; and D indicates a […] of greater than or equal to 1 μM but less than 10 μM.

CDK2 [2] = molecular target: T1, CDK2; assay: CDK2 HTRF assay: cellular endogenous CDK2 level in OVCAR3 cells; type: cell-based; conditions: 24 hours compound treatment, read-out: DC50 (half maximal degradation concentration of CDK2)
Method: Effects of compounds on cellular CDK2 level can be monitored by a high-throughput HTRF assay or traditional Western Blot assay.
To determine half maximal degradation concentration (DC50) values of compounds, cellular CDK2 level was measured in 96-well format using HTRF total CDK2 cellular kit (Cat #64CDK2TPEG) from Cisbio.
On Day 1, OVCAR3 cells were seeded into 96-well tissue-culture treated plates at 20,000 cells/well in 200 μL and incubated overnight at 37° C. in CO2 atmosphere. On Day 2 cells were treated with compounds at concentration ranging from 0.3 to 10,000 nM using HP D300 digital dispenser. 24 hours after compound treatment, cell culture media was removed by flicking the plate and tapping the plate against clean paper towel. Immediately 30 μL 1× lysis buffer was supplemented from the kit and the plate was incubated at room temperature on shaker for 30 min. After homogenization by pipetting up and down, 8 μL cell lysate from 96-well cell culture plate was transferred to 384-well small volume white detection plate. 2 μL premixed detection solution was added and the plate was covered with sealer. To prepare the detection solution, d2 conjugated-CDK2 antibody and Eu-cryptate conjugated CDK2 antibody were diluted into detection buffer following manufacturer's instruction. Detection plates were incubated overnight at room temperature and read on ClarioStar (BMG Labtech) in TR-FRET mode (665 nM and 620 nM). The TR-FRET ratio (665 nM/620 nM) was plotted against the compound concentration and normalized to DMSO controls. Half maximal degradation concentration (DC50) values were calculated with a four-parameter logistic fit using GraphPad Prism (version 8; La Jolla, CA).
In the table below, A indicates a DC50 of less than 0.1 μM; B indicates a DC50 of greater than or equal to 0.1 μM but less than 0.5 μM; C indicates a DC50 of greater than or equal to 0.5 μM but less than 1 μM; and D indicates a DC50 of greater than or equal to 1 μM but less than 10 μM.

IC50 (CDK2 [1]) | DC50 (CDK2 [2]) | SMILES
< 100 nM | < 100 nM | Cn1nc(N2CCC(=O)NC2=O)c2ccc(C3CCN(Cc4cccc(S(=O)(=O)N5CC[C@H](Nc6ncc(C(F)(F)F)c(-c7cnn(CC(F)(F)F)c7)n6)[C@H](F)C5)c4)CC3)cc21 (racemic) [Example 6, Rac-1-(6-(1-(3-(((3R,4S)-3-fluoro-4-((4-(1-(2,2,2-trifluoroethyl)-1H-pyrazol-4-yl)-5-(trifluoromethyl)-pyrimidin-2-yl)amino)piperidin-1-yl)sulfonyl)-benzyl)piperidin-4-yl)-1-methyl-1H-indazol-3-yl)dihydro-pyrimidine-2,4(1H,3H)-dione]
< 100 nM | < 100 nM | O=C1CCC(c2ccc(N3CCN(Cc4cccc(S(=O)(=O)N5CCC(Nc6ncc(C(F)(F)F)c(-c7cnn(CC(F)(F)F)c7)n6)[C@H](F)C5)c4)CC3)cc2)C(=O)N1 (mixture of isomers) [Example 19, Rac-3-(4-(4-(3-(((3R,4S)-3-fluoro-4-((4-(1-(2,2,2-trifluoroethyl)-1H-pyrazol-4-yl)-5-(trifluoromethyl)pyrimidin-2-yl)-amino)piperidin-1-yl)sulfonyl)benzyl)-piperazin-1-yl)-phenyl)piperidine-2,6-dione]
100 to 500 nM | < 100 nM | O=C1CCN(c2ccc(N3CCN(Cc4cccc(S(=O)(=O)N5CC[C@@H](Nc6ncc(C(F)(F)F)c(-c7cnn(CC(F)(F)F)c7)n6)[C@@H](F)C5)c4)CC3)cc2)C(=O)N1 (racemic) [Example 28, Rac-1-(4-(4-(3-(((3R,4S)-3-fluoro-4-((4-(1-(2,2,2-trifluoroethyl)-1H-pyrazol-4-yl)-5-(trifluoromethyl)-pyrimidin-2-yl)amino)piperidin-1-yl)sulfonyl)-benzyl)piperazin-1-yl)phenyl)dihydro-pyrimidine-2,4(1H,3H)-dione]
1000 to 10000 nM | 100 to 500 nM | O=C1CCC(N2C(=O)c3cc(F)c(N4CCN(Cc5cccc(S(=O)(=O)N6CC[C@H](Nc7ncc(C(F)(F)F)c(-c8cnn(CC(F)(F)F)c8)n7)[C@H](F)C6)c5)CC4)cc3C2=O)C(=O)N1 (mixture of isomers) [Example 32, Rac-2-(2,6-dioxopiperidin-3-yl)-5-fluoro-6-(4-(3-(((3R,4S)-3-fluoro-4-((4-(1-(2,2,2-trifluoroethyl)-1H-pyrazol-4-yl)-5-(trifluoromethyl)-pyrimidin-2-yl)amino)piperidin-1-yl)sulfonyl)-benzyl)piperazin-1-yl)-isoindoline-1,3-dione]
100 to 500 nM | 100 to 500 nM | O=C1CCC(N2C(=O)c3cc(F)c(N4CCN(Cc5cccc(S(=O)(=O)N6CCC(Nc7ncc(C(F)(F)F)c(-c8cnn(CC(F)(F)F)c8)n7)CC6)c5)CC4)cc3C2=O)C(=O)N1 (stereo not shown) [Example 1, 2-(2,6-dioxopiperidin-3-yl)-5-fluoro-6-(4-(3-((4-((4-(1-(2,2,2-trifluoroethyl)-1H-pyrazol-4-yl)-5-(trifluoromethyl)pyrimidin-2-yl)amino)piperidin-1-yl)sulfonyl)benzyl)piperazin-1-yl)isoindoline-1,3-dione]
< 100 nM | 100 to 500 nM | Cn1cc(-c2nc(NC3CCN(S(=O)(=O)c4cccc(CN5CCN(c6cc7c(cc6F)C(=O)N(C6CCC(=O)NC6=O)C7=O)CC5)c4)CC3)ncc2C(F)(F)F)cn1 (stereo not shown) [Example 5, 2-(2,6-dioxopiperidin-3-yl)-5-fluoro-6-(4-(3-((4-((4-(1-methyl-1H-pyrazol-4-yl)-5-(trifluoromethyl)pyrimidin-2-yl)-amino)piperidin-1-yl)sulfonyl)-benzyl)-piperazin-1-yl)isoindoline-1,3-dione]
< 100 nM |  | Cn1nc(N2CCC(=O)NC2=O)c2ccc(C3CCN(CC(C)(C)Cc4cccc(S(=O)(=O)N5CCC(Nc6ncc(C(F)(F)F)c(-c7cnn(CC(F)(F)F)c7)n6)CC5)c4)CC3)cc21 [Example 98, 1-(6-(1-(2,2-dimethyl-3-(3-((4-((4-(1-(2,2,2-trifluoroethyl)-1H-pyrazol-4-yl)-5-(trifluoromethyl)pyrimidin-2-yl)amino)-piperidin-1-yl)sulfonyl)-phenyl)propyl)-piperidin-4-yl)-1-methyl-1H-indazol-3-yl)dihydro-pyrimidine-2,4(1H,3H)-dione]

The remaining lines, values behind:

SMILES | IC50 (CDK2 [1]) | DC50 (CDK2 [2])
O=C1CCC(c2ccc(N3CCN(Cc4cccc(S(=O)(=O)N5CCC(Nc6ncc(C(F)(F)F)c(-c7cnn(CC(F)(F)F)c7)n6)[C@H](F)C5)c4)CC3)c(F)c2)C(=O)N1 (mixture of isomers) [Example 29, Rac-3-(3-fluoro-4-(4-(3-(((3R,4S)-3-fluoro-4-((4-(1-(2,2,2-trifluoroethyl)-1H-pyrazol-4-yl)-5-(trifluoromethyl)-pyrimidin-2-yl)amino)piperidin-1-yl)-sulfonyl)benzyl)piperazin-1-yl)phenyl)-piperidine-2,6-dione] | < 100 nM | < 100 nM
Cn1nc(N2CCC(=O)NC2=O)c2ccc(C3CCN(Cc4cccc(S(=O)(=O)N5CC[C@H](Nc6ncc(C(F)(F)F)c(-c7cnn(CC(C)(C)O)c7)n6)[C@H](F)C5)c4)CC3)cc21 (racemic) [Example 70, Rac-1-(6-(1-(3-(((3R,4S)-3-fluoro-4-((4-(1-(2-hydroxy-2-methylpropyl)-1H-pyrazol-4-yl)-5-(trifluoromethyl)-pyrimidin-2-yl)amino)piperidin-1-yl)-sulfonyl)benzyl)piperidin-4-yl)-1-methyl-1H-indazol-3-yl)dihydro-pyrimidine-2,4(1H,3H)-dione] | < 100 nM | < 100 nM
O=C1CCC(c2ccc(N3CCN(Cc4cccc(S(=O)(=O)N5CCC(Nc6ncc(C(F)(F)F)c(-c7cnn(CC(F)(F)F)c7)n6)CC5)c4)CC3)cc2)C(=O)N1 (stereo not shown) [Example 2, 3-(4-(4-(3-((4-((4-(1-(2,2,2-trifluoro-ethyl)-1H-pyrazol-4-yl)-5-(trifluoro-methyl)pyrimidin-2-yl)amino)piperidin-1-yl)sulfonyl)benzyl)piperazin-1-yl)-phenyl)piperidine-2,6-dione] | < 100 nM | < 100 nM
O=C1CCC(N2Cc3cc(C4CN(Cc5cccc(S(=O)(=O)N6CCC(Nc7ncc(C(F)(F)F)c(-c8cnn(CC(F)(F)F)c8)n7)CC6)c5)C4)ccc3C2=O)C(=O)N1 (stereo not shown) [Example 3, 3-(1-oxo-5-(1-(3-((4-((4-(1-(2,2,2-trifluoroethyl)-1H-pyrazol-4-yl)-5-(trifluoromethyl)pyrimidin-2-yl)-amino)-piperidin-1-yl)sulfonyl)-benzyl)azetidin-3-yl)isoindolin-2-yl)piperidine-2,6-dione] | < 100 nM | < 100 nM
Cn1nc(N2CCC(=O)NC2=O)c2ccc(C3CCN(Cc4cccc(S(=O)(=O)N5CCC(Nc6ncc(C(F)(F)F)c(-c7cnn(CC(F)(F)F)c7)n6)CC5)c4)CC3)cc21 [Example 4, 1-(1-methyl-6-(1-(3-((4-((4-(1-(2,2,2-trifluoroethyl)-1H-pyrazol-4-yl)-5-(trifluoromethyl)pyrimidin-2-yl)amino)-piperidin-1-yl)sulfonyl)-benzyl)-piperidin-4-yl)-1H-indazol-3-yl)dihydro-pyrimidine-2,4(1H,3H)-dione] | < 100 nM | < 100 nM
Cn1c(=O)n(C2CCC(=O)NC2=O)c2cccc(C3CCN(Cc4cccc(S(=O)(=O)N5CCC(Nc6ncc(C(F)(F)F)c(-c7cnn(CC(F)(F)F)c7)n6)CC5)c4)CC3)c21 (stereo not shown) [Example 8, 3-(3-methyl-2-oxo-4-(1-(3-((4-((4-(1-(2,2,2-trifluoroethyl)-1H-pyrazol-4-yl)-5-(trifluoromethyl)pyrimidin-2-yl)amino)-piperidin-1-yl)sulfonyl)-benzyl)-piperidin-4-yl)-2,3-dihydro-1H-benzo[d]-imidazol-1-yl)piperidine-2,6-dione] | < 100 nM | < 100 nM
